These are literature values, as cited in US4096052A, “Electrochemical hydroxylation of certain aromatic compounds” (priority 1977, dated 1978).

Molecules are shown by their SMILES. Where two headings read alike, the source gives them in different places.

[1] abbreviates: Table II (comparison acids), H2O, 25° C.

Take `CCC(=O)O` [propionic]: the “Ka (H2 O) at 25° C” value under setting [1] is 1.34 × 10^-5. Turning to `CC(Cl)C(=O)O` (stereo not drawn) [α-chloropropionic], where the note is “Table I, H2O, 25° C”, the “Ka (H2 O) at 25° C” value was 1.47 × 10^-3 and the “pKa (H2 O) at 25° C” value is 2.83. For the compound `C=CCC(=O)O` [vinylacetic], the “pKa (H2 O) at 25° C” value (water) is given as 4.34. `O=C(O)CCl` [chloroacetic, chloroacetic acid]: the “Ka (H2 O) at 25° C” value (Table I, H2O, 25° C) is recorded as 1.4 × 10^-3. As to `CC(Cl)CC(=O)O` (stereo not drawn) [β-chlorobutyric], under setting [1], the “Ka (H2 O) at 25° C” value is reported as 8.9 × 10^-5 and the “pKa (H2 O) at 25° C” value is 4.05.

As to `N#CCC(=O)O` [cyanoacetic, cyanoacetic acid], the “Ka (H2 O) at 25° C” value (Table I, H2O, 25° C) is reported as 3.65 × 10^-3. Further, under “water”, the “pKa (H2 O) at 25° C” value is reported as 2.41. Turning to `O=C(O)Cc1ccccc1` [phenylacetic], for the setting “Table II, H2O, 18° C”, the “Ka (H2 O)” value is recorded as 5.2 and the “pKa (H2 O)” value is recorded as 4.28.

As for `O=C(O)C(F)(F)F` [trifluoroacetic, trifluoroacetic acid], the “dissociation in aqueous solution (Table I footnote in place of Ka)” value (Table I footnote, H2O, 25° C) is recorded as “completely dissociated in aqueous solution”. Also, the “pKa (H2 O) at 25° C” value (Table I, H2O, 25° C) was 0. As for `CCC(Cl)C(=O)O` (stereo not drawn) [α-chlorobutyric], for the setting “Table I, H2O, 25° C”, the “Ka (H2 O) at 25° C” value was 1.39 × 10^-3 and the “pKa (H2 O) at 25° C” value is given as 2.86. On to `CCCCC(=O)O` [n-valeric], for which, under setting [1], the “Ka (H2 O) at 25° C” value is on record as 1.5 × 10^-5. In the case of `O=C(O)C(Cl)Cl` [dichloroacetic], the “Ka (H2 O) at 25° C” value (Table I, H2O, 25° C) was 3.32 × 10^-2. On to `O=C(O)CCCl` [β-chloropropionic], for which, under setting [1], the “Ka (H2 O) at 25° C” value was 1.04 × 10^-4 and the “pKa (H2 O) at 25° C” value was 3.98. In the case of `O=C(O)c1ccccc1[N+](=O)[O-]` [o-nitrobenzoic, o-nitrobenzoic acid], the “Ka (H2 O)” value (Table I, H2O, 18° C) is listed as 6.95 × 10^-3. Besides, the “pKa (H2 O)” value (water) was 2.16. Take `O=C(O)CBr` [bromoacetic]: the “Ka (H2 O) at 25° C” value (Table I, H2O, 25° C) was 2.05 × 10^-3. `O=C(O)C(Cl)(Cl)Cl` [trichloroacetic, trichloroacetic acid]: under “Table I, H2O, 25° C”, the “Ka (H2 O) at 25° C” value was 2 × 10^-1 and the “pKa (H2 O) at 25° C” value is 0.70.
